Key:
Test in all cases: biochemical
Parameters in all cases: KINOMEscan active-site competition binding panel (468 kinase assays), per cent of control at 1000 nM
Details in all cases: KINOMEscan per cent of control (binding competition); read-out: Percent Control
ASK2 = target: T1, ASK2 (Homo sapiens, UniProt O95382)
T1 construct: gene MAP3K6
From the text: (§1) Figure S7 / Percent Control

MERTK = MERTK (Homo sapiens, UniProt Q12866)
From the text: as §1

MST1R = MST1R (Homo sapiens, UniProt Q04912)
From the text: as §1

PDPK1 = PDPK1 (Homo sapiens, UniProt O15530)
From the text: as §1

GRK1 = GRK1 (Homo sapiens, UniProt Q15835)
From the text: as §1

YANK3 = target: T2, YANK3 (Homo sapiens, UniProt Q86UX6)
T2 construct: gene STK32C
From the text: as §1

LATS1 = LATS1 (Homo sapiens, UniProt O95835)
From the text: as §1

MEK4 = target: T3, MEK4 (Homo sapiens, UniProt P45985)
T3 construct: gene MAP2K4
From the text: as §1

KIT(A829P) = KIT(A829P) (Homo sapiens, UniProt P10721, A829P)
From the text: as §1

TIE1 = TIE1 (Homo sapiens, UniProt P35590)
From the text: as §1

ERBB2 = ERBB2 (Homo sapiens, UniProt P04626)
From the text: as §1

TLK1 = TLK1 (Homo sapiens, UniProt Q9UKI8)
From the text: as §1

BMX = BMX (Homo sapiens, UniProt P51813)
From the text: as §1

FES = FES (Homo sapiens, UniProt P07332)
From the text: as §1

TEC = TEC (Homo sapiens, UniProt P42680)
From the text: as §1

TTK = TTK (Homo sapiens, UniProt P33981)
From the text: as §1

PIK3CA(E545A) = PIK3CA(E545A) (Homo sapiens, UniProt P42336, E545A)
From the text: as §1

MST4 = target: T4, MST4 (Homo sapiens, UniProt Q9P289)
T4 construct: gene STK26
From the text: as §1

LRRK2(G2019S) = LRRK2(G2019S) (Homo sapiens, UniProt Q5S007, G2019S)
From the text: as §1

BRAF = BRAF (Homo sapiens, UniProt P15056)
From the text: as §1

BUB1 = BUB1 (Homo sapiens, UniProt O43683)
From the text: as §1

KIT(V559D,V654A) = KIT(V559D,V654A) (Homo sapiens, UniProt P10721, V559D/V654A)
From the text: as §1

FLT3(D835Y) = FLT3(D835Y) (Homo sapiens, UniProt P36888, D835Y)
From the text: as §1

TIE2 = target: T5, TIE2 (Homo sapiens, UniProt Q02763)
T5 construct: gene TEK
From the text: as §1

EPHA5 = EPHA5 (Homo sapiens, UniProt P54756)
From the text: as §1

Chain of EPHA5 (P54756 whole entry): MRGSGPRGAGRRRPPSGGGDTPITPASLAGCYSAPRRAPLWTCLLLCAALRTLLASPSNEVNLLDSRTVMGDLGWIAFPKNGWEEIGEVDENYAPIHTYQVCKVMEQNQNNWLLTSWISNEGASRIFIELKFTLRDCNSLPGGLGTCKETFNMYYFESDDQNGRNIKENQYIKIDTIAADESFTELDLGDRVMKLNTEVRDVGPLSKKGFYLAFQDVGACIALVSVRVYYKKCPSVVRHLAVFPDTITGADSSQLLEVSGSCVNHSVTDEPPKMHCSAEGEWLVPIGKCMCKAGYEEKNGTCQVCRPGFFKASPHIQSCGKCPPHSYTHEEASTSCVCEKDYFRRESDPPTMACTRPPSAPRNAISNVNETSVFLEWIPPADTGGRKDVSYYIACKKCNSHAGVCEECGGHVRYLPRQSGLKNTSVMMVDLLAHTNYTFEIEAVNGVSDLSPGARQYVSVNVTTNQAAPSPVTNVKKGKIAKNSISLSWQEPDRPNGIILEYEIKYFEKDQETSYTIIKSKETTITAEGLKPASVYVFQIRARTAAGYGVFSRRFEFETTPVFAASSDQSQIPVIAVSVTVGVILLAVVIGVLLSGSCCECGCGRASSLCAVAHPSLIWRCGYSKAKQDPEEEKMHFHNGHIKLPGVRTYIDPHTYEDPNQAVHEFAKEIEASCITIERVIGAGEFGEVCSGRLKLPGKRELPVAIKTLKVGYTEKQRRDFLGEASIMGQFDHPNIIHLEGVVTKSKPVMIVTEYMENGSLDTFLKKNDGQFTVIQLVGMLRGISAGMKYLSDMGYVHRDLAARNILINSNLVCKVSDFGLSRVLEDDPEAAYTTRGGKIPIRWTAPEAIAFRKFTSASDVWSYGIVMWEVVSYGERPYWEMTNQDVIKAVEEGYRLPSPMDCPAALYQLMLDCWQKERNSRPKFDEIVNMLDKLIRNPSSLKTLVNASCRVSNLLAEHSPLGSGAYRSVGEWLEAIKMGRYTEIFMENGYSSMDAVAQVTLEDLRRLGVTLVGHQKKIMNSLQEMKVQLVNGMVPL
Chain of TEC (P42680 whole entry): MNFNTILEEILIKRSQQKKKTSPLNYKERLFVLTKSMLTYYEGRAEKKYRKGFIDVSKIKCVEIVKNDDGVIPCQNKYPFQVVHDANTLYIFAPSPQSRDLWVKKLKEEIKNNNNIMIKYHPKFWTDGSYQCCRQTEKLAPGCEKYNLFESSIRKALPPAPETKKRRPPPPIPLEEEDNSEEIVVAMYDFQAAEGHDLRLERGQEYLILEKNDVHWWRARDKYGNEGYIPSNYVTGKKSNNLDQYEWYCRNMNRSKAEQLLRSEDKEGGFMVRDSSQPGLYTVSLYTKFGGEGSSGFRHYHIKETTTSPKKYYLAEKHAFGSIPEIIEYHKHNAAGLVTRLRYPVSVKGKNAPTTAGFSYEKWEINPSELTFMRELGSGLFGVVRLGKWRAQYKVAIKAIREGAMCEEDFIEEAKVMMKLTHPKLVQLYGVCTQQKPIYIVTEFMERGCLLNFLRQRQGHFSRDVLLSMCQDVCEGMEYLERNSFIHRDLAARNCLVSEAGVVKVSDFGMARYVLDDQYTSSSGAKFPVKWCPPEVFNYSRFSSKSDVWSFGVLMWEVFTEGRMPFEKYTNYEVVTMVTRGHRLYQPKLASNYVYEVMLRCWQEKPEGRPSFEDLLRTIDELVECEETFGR
Chain of KIT(V559D,V654A) (P10721 whole entry V559D/V654A): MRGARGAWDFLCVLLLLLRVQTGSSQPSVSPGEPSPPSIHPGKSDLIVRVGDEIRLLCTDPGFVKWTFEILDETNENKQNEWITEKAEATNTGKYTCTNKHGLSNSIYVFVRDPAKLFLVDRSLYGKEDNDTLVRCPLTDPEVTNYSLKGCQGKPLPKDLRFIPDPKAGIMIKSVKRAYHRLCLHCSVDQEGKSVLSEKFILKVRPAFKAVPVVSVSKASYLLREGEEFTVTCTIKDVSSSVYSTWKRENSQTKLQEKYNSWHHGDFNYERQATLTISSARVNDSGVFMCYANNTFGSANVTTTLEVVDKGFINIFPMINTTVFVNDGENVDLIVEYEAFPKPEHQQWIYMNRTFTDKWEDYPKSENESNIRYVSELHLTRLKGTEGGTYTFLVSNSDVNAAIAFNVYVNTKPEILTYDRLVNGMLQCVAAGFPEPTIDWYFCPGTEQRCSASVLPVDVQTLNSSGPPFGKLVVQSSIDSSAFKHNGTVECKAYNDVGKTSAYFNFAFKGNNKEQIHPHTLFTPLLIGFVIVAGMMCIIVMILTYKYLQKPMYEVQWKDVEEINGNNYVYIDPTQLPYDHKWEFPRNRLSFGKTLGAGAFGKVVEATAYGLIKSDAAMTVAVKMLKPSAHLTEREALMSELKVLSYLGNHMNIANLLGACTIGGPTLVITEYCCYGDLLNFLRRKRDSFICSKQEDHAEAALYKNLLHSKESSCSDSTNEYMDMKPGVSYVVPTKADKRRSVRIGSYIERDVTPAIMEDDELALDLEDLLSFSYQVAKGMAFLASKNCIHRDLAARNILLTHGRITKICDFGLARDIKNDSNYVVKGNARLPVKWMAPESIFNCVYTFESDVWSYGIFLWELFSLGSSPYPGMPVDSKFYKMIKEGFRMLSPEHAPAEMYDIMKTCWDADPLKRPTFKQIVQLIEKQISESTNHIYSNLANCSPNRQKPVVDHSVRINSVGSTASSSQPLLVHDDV
Chain of ERBB2 (P04626 whole entry): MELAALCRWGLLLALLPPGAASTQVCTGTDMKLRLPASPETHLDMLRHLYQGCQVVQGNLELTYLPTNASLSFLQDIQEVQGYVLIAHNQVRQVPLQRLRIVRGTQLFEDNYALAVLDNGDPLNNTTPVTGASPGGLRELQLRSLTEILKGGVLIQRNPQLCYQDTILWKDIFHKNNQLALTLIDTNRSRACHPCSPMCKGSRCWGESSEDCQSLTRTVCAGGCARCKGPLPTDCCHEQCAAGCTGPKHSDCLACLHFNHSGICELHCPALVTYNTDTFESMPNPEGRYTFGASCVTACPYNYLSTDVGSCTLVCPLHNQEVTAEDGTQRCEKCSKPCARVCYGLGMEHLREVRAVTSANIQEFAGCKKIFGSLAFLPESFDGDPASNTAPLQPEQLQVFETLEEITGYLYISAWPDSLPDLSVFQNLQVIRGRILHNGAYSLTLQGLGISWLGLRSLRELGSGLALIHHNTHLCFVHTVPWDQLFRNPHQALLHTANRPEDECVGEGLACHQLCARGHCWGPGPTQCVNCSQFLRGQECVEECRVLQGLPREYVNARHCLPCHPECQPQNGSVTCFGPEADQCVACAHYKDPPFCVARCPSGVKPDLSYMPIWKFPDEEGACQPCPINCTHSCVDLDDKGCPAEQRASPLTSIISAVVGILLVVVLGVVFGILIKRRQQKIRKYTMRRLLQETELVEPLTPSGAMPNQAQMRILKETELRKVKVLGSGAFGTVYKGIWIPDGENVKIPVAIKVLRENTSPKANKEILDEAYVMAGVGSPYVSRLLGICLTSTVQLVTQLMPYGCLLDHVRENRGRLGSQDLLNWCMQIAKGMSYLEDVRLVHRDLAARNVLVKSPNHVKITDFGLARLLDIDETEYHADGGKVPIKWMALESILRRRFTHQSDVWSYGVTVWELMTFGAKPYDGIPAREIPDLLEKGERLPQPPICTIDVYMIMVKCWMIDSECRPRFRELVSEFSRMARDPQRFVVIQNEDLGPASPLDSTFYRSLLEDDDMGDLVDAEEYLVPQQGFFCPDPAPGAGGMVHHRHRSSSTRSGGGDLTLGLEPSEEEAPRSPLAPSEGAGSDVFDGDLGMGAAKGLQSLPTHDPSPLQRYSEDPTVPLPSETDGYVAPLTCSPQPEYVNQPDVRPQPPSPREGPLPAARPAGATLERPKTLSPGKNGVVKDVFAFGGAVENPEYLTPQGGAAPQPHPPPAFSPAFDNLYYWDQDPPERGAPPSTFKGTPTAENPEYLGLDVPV
Chain of LATS1 (O95835 whole entry): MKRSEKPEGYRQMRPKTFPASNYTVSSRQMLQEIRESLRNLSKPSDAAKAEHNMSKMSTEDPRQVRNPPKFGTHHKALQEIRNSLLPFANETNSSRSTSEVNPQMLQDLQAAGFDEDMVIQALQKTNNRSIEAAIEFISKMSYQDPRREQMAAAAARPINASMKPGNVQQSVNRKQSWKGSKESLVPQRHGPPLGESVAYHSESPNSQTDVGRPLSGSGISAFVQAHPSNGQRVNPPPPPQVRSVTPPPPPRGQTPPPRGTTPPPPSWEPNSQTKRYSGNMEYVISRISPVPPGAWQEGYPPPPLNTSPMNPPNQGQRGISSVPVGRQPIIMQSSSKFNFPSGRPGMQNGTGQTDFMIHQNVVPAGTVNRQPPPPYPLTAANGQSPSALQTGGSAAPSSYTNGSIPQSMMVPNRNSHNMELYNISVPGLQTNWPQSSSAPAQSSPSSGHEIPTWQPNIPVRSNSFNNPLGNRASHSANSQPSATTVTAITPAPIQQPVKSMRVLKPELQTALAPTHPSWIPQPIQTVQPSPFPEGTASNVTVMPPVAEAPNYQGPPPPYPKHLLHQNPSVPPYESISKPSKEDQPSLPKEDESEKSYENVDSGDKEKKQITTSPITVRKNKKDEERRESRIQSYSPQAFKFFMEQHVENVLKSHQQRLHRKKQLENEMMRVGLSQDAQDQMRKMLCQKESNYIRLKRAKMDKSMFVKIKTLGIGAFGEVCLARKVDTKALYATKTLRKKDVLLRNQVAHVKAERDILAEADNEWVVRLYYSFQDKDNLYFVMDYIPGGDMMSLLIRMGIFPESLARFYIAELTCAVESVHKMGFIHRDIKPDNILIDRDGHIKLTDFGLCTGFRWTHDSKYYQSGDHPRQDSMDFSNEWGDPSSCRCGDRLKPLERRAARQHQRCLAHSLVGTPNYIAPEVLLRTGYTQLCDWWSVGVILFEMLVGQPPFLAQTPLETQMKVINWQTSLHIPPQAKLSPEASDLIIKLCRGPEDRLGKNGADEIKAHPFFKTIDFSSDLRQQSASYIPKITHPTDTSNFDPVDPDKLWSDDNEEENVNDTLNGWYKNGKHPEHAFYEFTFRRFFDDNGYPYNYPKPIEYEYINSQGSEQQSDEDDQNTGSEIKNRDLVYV
Chain of KIT(A829P) (P10721 whole entry A829P): as the sequence (P10721 whole entry V559D/V654A) above, with D559V, A654V, A829P counted along it

## Cn1c(=O)[nH]c2ccc(-c3cccc(C(=O)NC4CCn5ccnc5C4)c3)cc21 (stereo not shown) [Z36-MP5]
ASK2
  remaining binding at 1 µM: 93%
MERTK
  remaining binding at 1 µM: 70%
MST1R
  remaining binding at 1 µM: 64%
PDPK1
  remaining binding at 1 µM: 97%
GRK1
  remaining binding at 1 µM: 29%
YANK3
  remaining binding at 1 µM: 94%
LATS1
  remaining binding at 1 µM: 100%
MEK4
  remaining binding at 1 µM: 84%
KIT(A829P)
  remaining binding at 1 µM: 78%
TIE1
  remaining binding at 1 µM: 97%
ERBB2
  remaining binding at 1 µM: 100%
TLK1
  remaining binding at 1 µM: 90%
BMX
  remaining binding at 1 µM: 100%
FES
  remaining binding at 1 µM: 73%
TEC
  remaining binding at 1 µM: 98%
TTK
  remaining binding at 1 µM: 91%
PIK3CA(E545A)
  remaining binding at 1 µM: 89%
MST4
  remaining binding at 1 µM: 82%
LRRK2(G2019S)
  remaining binding at 1 µM: 59%
BRAF
  remaining binding at 1 µM: 88%
BUB1
  remaining binding at 1 µM: 73%
KIT(V559D,V654A)
  remaining binding at 1 µM: 76%
FLT3(D835Y)
  remaining binding at 1 µM: 88%
TIE2
  remaining binding at 1 µM: 58%
EPHA5
  remaining binding at 1 µM: 86%

Reference: paper PMC10924921, “Mi-2β promotes immune evasion in melanoma by activating EZH2 methylation” (Nature Communications, 2024)
